How the values were obtained:
[1] = test system: LU-01-0030 xenograft; assay: LU-01-0030 xenograft model, first study, Compound 1 and radiation; format: in vivo, mice
From the text: (§1) The LU-01-0030 xenograft model is a human primary non-small cell lung cancer model. In the first study with the LU-01-0030 model, approximately nine week old female BALB/c nude (Shanghai Sino-British SIPPR/BK Laboratory Animal Co., LTD.) mice were implanted subcutaneously with approximate 30 mm^3 LU-01-0030 tumor slices in the right flank. When the mean tumor volume reached approximately 159 mm^3, the animals were randomized into 10 treatment groups (n=8/group).
Compound 1 [((1R,2R,3S,4R)-2,3-dihydroxy-4-(2-(3-(trifluoromethylthio) ? phenyl)pyrazolo[1,5-a]pyrimidin-7-ylamino)cyclopentyl)methyl sulfamate] is formulated in 10% HPbCD in sterile water and administered intravenously on a BIW (twice/week schedule; Monday and Thursday, i.e. days 0, 3, 7, 10, 14, 17) for 3 weeks in the HN-13-0014 and LU-01-0030 (first study) models. Compound 1 formulation was prepared weekly and stored at room temperature in the dark.
(§2) Beam-focused radiation was delivered using a either 1 or 2 Gray dosed on days 0, 1, 7, and 8 or on days 0, 3, 7, and 10 in the HN-13-0014 and LU-01-0030 (first study) models. A Rad Source RS-2000 X-ray irradiator was used for therapy (Rad Source). Before radiation, animals were anesthetized by i.p. injection using 1.0% sodium pentobarbital at 80 mg/kg (Vendor: Sigma). Focused radiation was applied to each mouse at 1 Gy/min.
(§3) Tumors were measured twice weekly using vernier calipers. Tumor volumes were calculated using the following formula: (0.5×[length×width^2]). Treatment groups and dosing/treatment schedules are indicated in Tables 1a, 2a, 3a, 4a, and 5a below. Tumor size and body weight are measured approximately twice a week for the duration of the study. Mice are euthanized when their tumor volume reached approximately 1000 mm^3. Tumor growth continued to be monitored after the dosing period in some studies. In Tables 1a, 2a, 3a, 4a, and 5a tumor volumes are shown for HN-13-0014 (day 21), LU-01-0030 (day 21), the second LU-01-0030 study (day 20), LU-01-0266 (day 20), ST-02-0004 (day 21) and FIN-13-0007 (day 24), respectively. Average tumor volume is reported as a function of time for selected groups of selected studies.
(§4) Measurements from day 0 to day 20, day 21 or day 24 are analyzed as specified in Tables below. All tumor volumes have a value of 1 added to them before log10 transformation. For each animal, the log tumor volume at day 0 is subtracted from the log tumor volume on the subsequent days. This difference vs. time is used to calculate an area under the curve (AUC) for each animal using the trapezoid rule. In instances when an animal in a treatment group is removed early from the study, the last observed tumor value is carried forward through all subsequent time points. The synergy score for the combination of agents A and B is defined as 100*(mean(AUCAB)−mean(AUCA)−mean(AUCB)+mean(AUCctl))/mean(AUCctl): where AUCAB, AUCA, AUCB, and AUCctl are the AUC values for animals in the combination group, the A group, the B group, and the control group, respectively. The standard error of the synergy score is computed based on the variation in the AUC values among the animals. […] If the P-value is above 0.05, then the combination is considered to be additive. If the P-value is below 0.05, and the synergy score is less than zero, then the combination is considered to be synergistic. If the P-value is below 0.05 and the synergy score was greater than zero, but the mean AUC for the combination was lower than the lowest mean AUC among the two single agent treatments, then the combination was sub-additive. If the P-value is below 0.05 and if the synergy score was greater than zero, and the mean AUC for the combination was greater than the mean AUC for at least one of the single agent treatments, then the combination was antagonistic.

[2] = test system: LU-01-0266 xenograft; assay: LU-01-0266 xenograft model, Compound 1 and radiation; format: in vivo, mice; settings: for Classification / Synergy score: through Day 20
From the text: as §1, with “LU-01-0266” for “LU-01-0030”, “tumor” for “cancer”, “Approximately” for “In the first study with the LU-01-0030 model, approximately”, “173” for “159”
Compound 1 [((1R,2R,3S,4R)-2,3-dihydroxy-4-(2-(3-(trifluoromethylthio) ? phenyl)pyrazolo[1,5-a]pyrimidin-7-ylamino)cyclopentyl)methyl sulfamate] is formulated in 10% HPbCD in sterile water and administered intravenously on days 0, 3, 7, 10, 14, 17 in the LU-01-0266 and HN-13-0007 models and on days 0, 3, 8, 11, 15, 18 in the ST-02-0004 model and in the second study with the LU-01-0030 model. Compound 1 formulation was prepared weekly and stored at room temperature in the dark.
as §2, with “using” for “using a either 1 or”, “LU-01-0266” for “HN-13-0014”, “HN-13-0007” for “LU-01-0030 (first study)”, “models. In the ST-02-0004 model 2 Gray of radiation was delivered on days 0, 1, 3, and 8.” for “models.”
as §3, §4

[3] = 6.25 mg/kg Compound 1 + 2 Gy Radiation D0, 1, 7, 8
[4] = 6.25 mg/kg Compound 1 + 2 Gy Radiation D0, 3, 7, 10
[5] = 6.25 mg/kg Compound 1 IV BIWx3 + 2 Gy Radiation Beam D 0, 1, 7, 8
[6] = 6.25 mg/kg Compound 1 IV BIWx3 + 2 Gy Radiation Beam D 0, 3, 7, 10
[7] = 15 mg/kg Compound 1 + 2 Gy Radiation D0, 1, 7, 8
[8] = 15 mg/kg Compound 1 + 2 Gy Radiation D0, 3, 7, 10
[9] = 15 mg/kg Compound 1 IV BIWx3 + 2 Gy Radiation Beam D 0, 1, 7, 8
[10] = 15 mg/kg Compound 1 IV BIWx3 + 2 Gy Radiation Beam D 0, 3, 7, 10

`NS(=O)(=O)OC[C@H]1C[C@@H](Nc2ccnc3cc(-c4cccc(SC(F)(F)F)c4)nn23)[C@H](O)[C@@H]1O` [Compound 1, ((1R,2R,3S,4R)-2,3-dihydroxy-4-(2-(3-(trifluoromethylthio)phenyl)pyrazolo[1,5-a]pyrimidin-7-ylamino)cyclopentyl)methyl sulfamate] was tested, and the Classification [1, 3] was “Additive (If the P-value is above 0.05, then the combination is considered to be additive)”, the Synergy score [1, 3] was 5.4 and the Classification [1, 4] was “Additive (If the P-value is above 0.05, then the combination is considered to be additive)”. For the same compound, the Synergy score [1, 4] was −22.2, the “Tumor Volume Day 21” value [1, 5] was 101.9 mm^3 and the “Tumor Volume Day 21” value [1, 6] was 106.3 mm^3. The “Tumor Volume Day 21” value ([1]; 6.25 mg/kg Compound 1 IV BIWx3, single agent) was 555.7 mm^3, the “anti-tumor activity compared to the vehicle control” value ([1]; 6.25 mg/kg Compound 1 as a single agent) was “no anti-tumor activity” and the Classification [1, 7] was “Synergy (If the P-value is below 0.05, and the synergy score is less than zero, then the combination is considered to be synergistic)”. For the same compound, the Synergy score [1, 7] was −139.6, the Classification [1, 8] was “Synergy (If the P-value is below 0.05, and the synergy score is less than zero, then the combination is considered to be synergistic)” and the Synergy score [1, 8] was −165.9. The “Tumor Volume Day 21” value [1, 9] was 2.3 mm^3, the “Tumor Volume Day 21” value [1, 10] was 2.8 mm^3 and the “Tumor Volume Day 21” value ([1]; 15 mg/kg Compound 1 IV BIWx3, single agent) was 151.3 mm^3. The “anti-tumor activity, single agent” value ([1]; Compound 1 at 15 mg/kg as single agent) was “tumor stasis”, the combination effect ([1]; Compound 1 with 2 Gy radiation) was “additive-to-synergistic combination effect” and the “Tumor Volume Day 20” value [2, 5] was 181.6 mm^3. The “Tumor Volume Day 20” value [2, 6] was 213.4 mm^3, the “Tumor Volume Day 20” value ([2]; 6.25 mg/kg Compound 1 IV BIWx3 = D 0, 3, 7, 10, 14, 17, single agent) was 1004.5 mm^3 and the “Tumor Volume Day 20” value [2, 9] was 77.4 mm^3. The “Tumor Volume Day 20” value [2, 10] was 174.9 mm^3, the “Tumor Volume Day 20” value ([2]; 15 mg/kg Compound 1 IV BIWx3 = D 0, 3, 7, 10, 14, 17, single agent) was 779 mm^3 and the combination effect ([2]; Compound 1 with 2 Gy radiation) was “additive combination effect”. The “anti-tumor activity compared to the vehicle control” value ([2]; single agent, IV at 6.25 and 15 mg/kg BIW for 3 weeks on Days 0, 3, 7, 10, 14, 17) was “weak anti-tumor activity”, the Classification [2, 3] was “Additive (If the P-value is above 0.05, then the combination is considered to be additive)” and the Synergy score [2, 3] was 14. The Classification [2, 4] was “Additive (If the P-value is above 0.05, then the combination is considered to be additive)”, the Synergy score [2, 4] was 15 and the Classification [2, 7] was “Additive (If the P-value is above 0.05, then the combination is considered to be additive)”. The Synergy score [2, 7] was −25, the Classification [2, 8] was “Additive (If the P-value is above 0.05, then the combination is considered to be additive)” and the Synergy score [2, 8] was 12.

— patent publication US10335411B2, “Administration of ubiquitin-activating enzyme inhibitor and radiation” (Millennium Pharmaceuticals, Inc., priority 2014, dated 2019)
